Literature values in patent US9557341B2, “Risk assessment for cutaneous adverse drug reactions from antiretroviral agent” (priority 2008, dated 2017).
Like-named read-outs stand apart in the source and are kept apart here.

Conditions: cited from earlier work; for hypersensitivity reaction incidence: mix French population

Row | Compound | rate of drug rash (human, in vivo) | rate of hepatitis (human, in vivo) | odds ratios, hypersensitivity and HLA-B*5701 (Caucasians) | rate of unwarranted interruptions of therapy (after HLA-B*5701 screening) | rate of unwarranted interruptions of therapy (before HLA-B*5701 screening) | negative predictive value of HLA-B*5701 for hypersensitivity (every ethnic studies) | hypersensitivity syndrome, cases (human, in vivo) | hypersensitivity reaction incidence (after HLA-B*5701 screening) | hypersensitivity reaction incidence (before HLA-B*5701 screening)
1 | O=C1Nc2ccc(Cl)cc2[C@@](C#CC2CC2)(C(F)(F)F)O1 [EFV, efavirenz] | 11% | 9% | – | – | – | – | – | – | –
2 | Nc1nc(NC2CC2)c2ncn([C@H]3C=C[C@@H](CO)C3)c2n1 [abacavir] | – | – | 117 | 0.73% | 10.2% | more than 90% | about 5% | 0% | 12%
